# According to paper PMC5387716, “Discovery of monocarbonyl curcumin-BTP hybrids as STAT3 inhibitors for drug-sensitive and drug-resistant breast cancer therapy” (Scientific Reports, 2017):
# Columns and labels:
# MCF-7/DOX cells [1] = test: MTT anti-proliferative assay, MCF-7/DOX; type: cell-based, human; conditions: for IC50: Homo sapiens, MCF7-DOX, MTT, 48 h, read-out: MCF-7/DOX IC50 ± SD
# Description: (§1) All cell lines were purchased from Cell Bank of Shanghai Institute of Biochemistry and Cell Biology, Chinese Academy of Sciences (Shanghai, China). Human breast carcinoma cells (MCF-7 and MCF-7/DOX), breast epithelial cells (MCF-10A) and normal human liver cells (LO2) were maintained in RPMI-1640 medium. All cells were supplemented with 12% fetal bovine serum containing 50 μg/ml penicillin and 50 μg/ml streptomycin. Cells were grown to 80% confluency in a tissue culture flask at 37 °C in a humidified atmosphere containing 5% CO2, and then were trypsinized with 1 × Trypsin-Versene and split. The MCF-7/DOX cell line we used was established from its parental cell line MCF-7 cell by gradually increasing the concentration of DOX to which the cells were exposed in a stepwise manner over a period of 8 months. […] The cells were incubated in drug-free medium for at least 1 week before use.
# (§2) Cells (MCF-7, MCF-7/DOX, MCF-10A, LO2) were seeded in 96-well plates at a density of 3,000–6,000 cells per well. The cells were incubated overnight (16 h) in a humidified 5% CO2 incubator at 37 °C. After media removal, different concentrations of test compounds were added in triplicate to the plates in 200 μL of fresh media and were incubated with the cells at 37 °C for 48 h. […] Cell viability was evaluated using 3-(4, 5-dimethylthiazolyl)-2,5-diphenyltetrazoliumbromide (MTT). The absorbance was read by an ELISA reader (SpectraMax Plus384, Molecular Devices, Sunnyvale, CA) at a test wavelength of 570 nm and a reference wavelength of 630 nm. Cell viability was calculated using the following formula: […]
# LO2 cells = test: MTT anti-proliferative assay, LO2; type: cell-based; conditions: Homo sapiens, L02, 48 h, normal human liver cells, Table 2 prints no unit, μM
# Description: as §1, §2
# MCF-7 cells [2] = test: MTT anti-proliferative assay, MCF-7; type: cell-based, human; conditions: Homo sapiens, MCF7, 48 h, read-out: MCF-7 IC50 ± SD
# Description: as §1, §2
# MCF-10A cells = test: MTT anti-proliferative assay, MCF-10A; type: cell-based, human; conditions: Homo sapiens, MCF-10A, 48 h, normal breast epithelial cells, Table 2 prints no unit, μM
# Description: as §1, §2
# MCF-7 cells [3] = test: Annexin V-APC/7-AAD flow cytometry of apoptosis, MCF-7; type: cell-based, human; conditions: 4 μM, 24 h
# Description: (§3) MCF-7, MCF-7/DOX or MCF-10A cells, at a density of 2.5 × 10^5 cells per well, were cultured in regular growth medium in 6-well plates for 24 h and treated in duplicate with different concentrations of 6b or curcumin for 24 h. The cells were harvested, washed and stained with 5 μL of Annexin V-APC and 5 μL of 7-AAD at room temperature for 15 min. Cells were then analyzed by flow cytometry (488 nm excitation and 600 nm emission filters) using a BD FACSCalibur flow cytometer (Becton & Dickinson Company, Franklin Lakes, NJ).
# MCF-7 cells [4] = test: Flow cytometry of the cell cycle, MCF-7; type: cell-based, human; conditions: MCF-7, 4 μM, 24 h
# Description: (§4) MCF-7 or MCF-7/DOX cells were plated in 6-well culture plates (1.5 × 10^5 cells per well). After incubation overnight, various concentrations of 6b or curcumin were added and cells were incubated for 24 h. Cells were harvested, washed with cold PBS, and incubated with pre-cooled 70% ethanol for a minimum of 4 h at 4 °C to fix them. The cells were then centrifuged, carefully aspirated from the supernatant, and re-suspended in a propidium iodide (final concentration, 40 μg/ml) and RNase A (final concentration, 100 μg/ml) solution at a final cell density of 0.5 × 10^6 cells/ml. The suspension was incubated at 37 °C for 30 min prior to analysis by flow cytometry.
# Bcl-2 gene = test: Quantitative real-time RT-PCR of Bcl-2; type: cell-based, human; conditions: MCF-7 and MCF-7/DOX cells, 24 h
# Description: (§5) Levels of mRNA expression were analyzed with the RT-PCR assay, with total RNA isolated from MCF-7 or MCF-7/DOX cells using an EASYspin Plus tissue/cell RNA extraction kit (Aidlab Biotechnologies Co. Ltd). RNA was quantified by measuring absorption at 260 nm and 1 μg of RNA was reverse transcribed to cDNA using the Transcriptor First Strand cDNA Synthesis Kit (Roche Diagnostics, Basel, Switzerland). Thermal cycling conditions included 95 °C initial denaturation for 5 min, followed by 40 cycles of denaturation (10 s at 95 °C), annealing (15 s at 60 °C) and extension (15 s at 72 °C with a single fluorescence measurement), a melt curve program (60–95 °C with a 0.11 °C/s heat increase and continuous fluorescence measurement) and a cooling step to 40 °C. The Δ cycle threshold method was used for the calculation of relative differences in mRNA abundance with a LightCycler 480 (Roche Molecular Biochemicals, Mannheim, Germany). The data were normalized to the expression of GAPDH. The results were expressed as fold-changes. The RT-PCR primers that were used in this study are listed in the supporting information.
# Cyclin D1 gene = test: Quantitative real-time RT-PCR of Cyclin D1; type: cell-based, human; conditions: MCF-7 and MCF-7/DOX cells, 24 h
# Description: as §5
# MCF-7 cells [5] = test: ROS detection by DCFH-DA flow cytometry, MCF-7; type: cell-based, human; conditions: MCF-7, 4 μM, 24 h
# Description: (§6) MCF-7 or MCF-7/DOX cells were seeded at a density of 3 × 10^5 cells per well of a 6-well plate and treated with various concentrations of 6b (0, 1, 2, 4 μM) or 4 μM curcumin for 24 h. DCFH-DA was dissolved in serum-free medium and diluted to a final concentration of 10 μM. After treatment with 6b, the growth media was replaced with serum-free medium containing the probe. After incubation for 20 min at 37 °C, cells were washed with serum-free medium twice, digested by trypsin and resuspended in pre-warmed PBS buffer. The samples were then subjected to a flow cytometry assay using a BD FACSCalibur flow cytometer (Becton & Dickinson Company, Franklin Lakes, NJ).
# MCF-7/DOX cells [6] = test: Flow cytometry of the cell cycle, MCF-7/DOX; type: cell-based, human; conditions: 4 μM, 24 h
# Description: as §4
# Bax gene = test: Quantitative real-time RT-PCR of Bax; type: cell-based, human; conditions: MCF-7 and MCF-7/DOX cells, 24 h
# Description: as §5
# MCF-7/DOX cells [7] = test: Annexin V-APC/7-AAD flow cytometry of apoptosis, MCF-7/DOX; type: cell-based, human; conditions: 4 μM, 24 h
# Description: as §3
# MCF-7/DOX cells [8] = test: ROS detection by DCFH-DA flow cytometry, MCF-7/DOX; type: cell-based, human; conditions: 4 μM, 24 h
# Description: as §6
SMILES,IC50 (MCF-7/DOX cells [1]) [µM],resistance to DOX compared with parental DOX-sensitive cells (MCF-7/DOX cells [1]; MCF-7/DOX vs MCF-7) [fold],IC50 (LO2 cells) [µM],IC50 (MCF-7 cells [2]) [µM],IC50 (MCF-10A cells) [µM],apoptosis rate (MCF-7 cells [3]),effect on the cell cycle (MCF-7 cells [4]),Bcl-2 gene level (in words) (Bcl-2 gene),Cyclin D1 gene level (in words) (Cyclin D1 gene),ROS generation (MCF-7 cells [5]),effect on the cell cycle (MCF-7/DOX cells [6]),Bax gene level (in words) (Bax gene),apoptosis rate (MCF-7/DOX cells [7]),ROS generation (MCF-7/DOX cells [8])
"COc1cccc2c1C(=O)c1c(O)c3c(c(O)c1C2=O)C[C@@](O)(C(=O)CO)C[C@@H]3O[C@H]1C[C@H](N)[C@H](O)[C@H](C)O1 [DOX, doxorubicin, reference compound]",64.7 ± 3.8,66.02,0.82 ± 0.12,0.98 ± 0.08,0.98 ± 0.17,,,,,,,,,
COc1cc(/C=C/C(=O)CC(=O)/C=C/c2ccc(O)c(OC)c2)ccc1O [curcumin],32.7 ± 4,,,37.7 ± 8.2,,small effect,little effect,little effect,little effect,little effect,little effect,little effect,small effect,little effect
